# Patent publication US20150329918A1, “JAGGED1 AS A MARKER AND THERAPEUTIC TARGET FOR BREAST CANCER BONE METASTASIS” (The Trustees of Princeton University, priority 2011, published 2015)
# B1: JAG1 KD: shRNA targeting CGTACAAGTAGTTCTGTAT of JAG1 (SEQ ID NO: 1; same as sense strand SEQ ID NO: 78, shRNA SEQ ID NO: 80) (nucleic acid)
# chain: GATCTCCCGTACAAGTAGTTCTGTATTTCAAGAGAATACAGAACTACTTGTACGTTTTTGGAAAAGCTTTTCCAAAAACGTACAAGTAGTTCTGTATTCTCTTGAAATACAGAACTACTTGTACGGGA
# How the values were obtained:
# [1] = tested on: pre-osteoclast Raw 264.7 cells; assay: Osteoclastogenesis coculture assay (TRAP staining); assay type: cell-based, mouse; conditions: 15-fold increase by JAG1 OE relative to controls; 1 μM MRK-003; FIG. 15A
# Method: After seeding 5×10^4 control or JAG1 OE tumor cells/well into 12-well plates, murine pre-osteoclast Raw 264.7 (2×10^5 cells/well) or MOCP5 (5×10^5 cells/well) cells in media containing 30 ng/ml RANKL and DMSO or 1 μM MRK-003 were added the next day. Media were changed every 2 days. TRAP staining was performed on day 6 using a leukocyte acid phosphatase kit (Sigma). TRAP^+-multinucleated cells were scored as mature osteoclasts. The number of nuclei per osteoclast was quantified using TRAP-stained images. Mouse specific qRT-PCR primers were used to selectively quantify Raw264.7 osteoclast gene expression levels after 6 days of coculture (see Table 1 below).
# For primary osteoclast coculture assays, bone marrow cells were flushed out from femora and tibiae of 4- to 6-week-old wild-type FVB mice and plated in basal culture medium overnight. The next day, nonadherent cells were added at 1×10^6/well to 12-well plates that were previously seeded with either control or JAG1 OE tumor cells supplemented with 50 ng/ml RANKL and 50 ng/ml M-CSF. Medium was changed every 3 days. TRAP staining and scoring were performed on days 10-12.
# JAGGED1 = JAGGED1 mRNA and protein after TGFβ treatment of breast cancer cells in vitro; assay type: cell-based, human; conditions: several breast cancer cell lines; FIG. 5A
# Method: SDS lysis buffer (0.05 mM Tris-HCl, 50 mM BME, 2% SDS, 0.1% Bromophenol blue, 10% glycerol) was used to collect protein from cultured cells. Heat denatured protein was then equally loaded, separated on an SDS-page gel, transferred onto a pure nitrocellulose membrane (BioRad), and blocked with either 5% milk or 5% BSA. Primary antibodies for immunoblotting included: goat anti-JAGGED1 (1:1000 dilution, sc-6011, Santa Cruz), rabbit anti-phosho-SMAD2 (1:1000 dilution, Ser465/467, Cell Signaling), and mouse anti-β-actin (1:4000 dilution, Abcam) for loading control. Membranes were incubated with horseradish peroxidase (HRP)-conjugated anti-mouse secondary antibody (1:2000 dilution, GE Healthcare) or anti-rabbit secondary antibody (1:2000 dilution, GE Healthcare) for 1 h and chemiluminescence signals were detected by ECL substrate (GE Healthcare).
# (§1) For in vitro experiments, GSI-IX (Calbiochem) and TGFβ Receptor 1 (EMD Biosciences 616451) were dissolved in DMSO. […] RNA and protein were collected and analyzed for JAGGED1 expression as described above. […]
# RNA from in vitro cultured cells or flow cytometry-separated cells was collected in RLT lysis buffer and extracted with RNeasy mini kit (Qiagen). […] Quantitative RT-PCR was performed using Power Syber Green PCR Master Mix (Applied Biosystems) with the ABI Prism 7900HT thermocycler (Applied Biosystems) according to the manufacturer's protocol. […]
# [2] = tested on: SCP28 tumor cells cocultured with MC3T3-E1 osteoblasts; assay: Osteoblast coculture tumor cell quantification by luciferase assay; assay type: cell-based, human; conditions: cocultured with MC3T3-E1; hIL-6 10 or 100 ng/ml; FIG. 14B
# Method: MC3T3-E1 cells were seeded at 2×10^5 cells/well in 12-well plates. After confluence was achieved, luciferase/GFP-labeled (GFP+) control and JAG1 OE cells were added at 1×10^4 cells/well in triplicate and treated with DMSO or 1 μM MRK-003. Media supplemented with appropriate drugs were changed every 2 days. After 6 days the coculture was subjected to a luciferase assay to selectively quantify the number of tumor cells. These values were normalized against luciferase quantification of 12-well plates seeded with tumor cells alone.
# For transfection experiments, MC3T3-E1 osteoblasts were seeded at 2×10^5 cells/well in 12-well plates and grown to 95% confluence. […] Following 6 days, the coculture was lysed and subjected to a luciferase assay to selectively quantify the number of tumor cells. For gene expression analysis, RNA from cocultures was collected in RLT lysis buffer, extracted with RNeasy mini kit (Qiagen), and subjected to quantitative RT-PCR.
# as §1
# [3] = tested on: SCP2 and 1833 bone metastasis; assay: Bone metastasis xenograft with JAG1 knockdown SCP2 and 1833 cells; assay type: in vivo, mouse
# Method: (§2) For bone metastsis studies, 10^5 tumor cells were injected into the left cardiac ventricle of anesthetized female athymic Ncr-nu/nu or BALB/c mice. Development of metastases was monitored by BLI. Bioluminescence images were acquired with a Xenogen IVIS 200 Imaging System. Analysis was performed with Living Image software by measuring photon flux in the hindlimbs of mice. Data were normalized to the signal on day 7. Bone metastasis-free survival curves represent the time point at which each mouse developed bone metastasis by threshold BLI signals in the hindlimbs. For the orthotopic xenograft model, mammary fat pad injections and primary tumor size measurements were performed following the procedure described previously (Minn et al., 2005, which is incorporated herein by reference as if fully set forth).
# After 48 hours viruses were collected, filtered and used to infect target cells in the presence of 5 μg/ml polybrene. The infected cells were selected with 1 μg/ml puromycin. […]
# Hindlimb bones were excised from mice at the end point of each experiment, immediately after the last BLI time point. […] For quantitative analysis of lesion area, a 5× objective was used to focus on the tumor region of interest and images were acquired using the AxioCamICc3 camera set to an exposure of 100 ms. Lesions that were larger than the field of view were quantified by acquiring multiple images to encompass the entire lesion. The “spline” function of the AxioVision software was used to outline the region of interest and subsequently quantify the lesion area. Osteoclast number was assessed as multinucleated TRAP^+ cells along the tumor-bone interface and reported as number/mm of interface (Yin et al., 2003, which is incorporated herein by reference as if fully set forth). […]
# [4] = tested on: SCP2 and 1833 tumor cells; assay: Proliferation of JAG1 KD tumor cells in culture or as mammary tumors; design: species or system human
# Method: as §2
# After 48 hours viruses were collected, filtered and used to infect target cells in the presence of 5 μg/ml polybrene. The infected cells were selected with 1 μg/ml puromycin. For stable overexpression in the SCP28 human breast cancer cell line, human JAGGED1 cDNA was PCR amplified using the primer pair: 5′-[…]-3′ (Sense) [SEQ ID NO: 2] and 5′-[…]-3′ (Antisense) [SEQ ID NO: 3] and cloned into the retroviral expression vector pMSCVpuro using XhoI and EcoRI restriction sites (underlined=restriction sites, bold=human JAG1-specific sequences). […]
molecule,measurement,setting,value
C[C@H](NC(=O)Cc1cc(F)cc(F)c1)C(=O)N[C@H](C(=O)OC(C)(C)C)c1ccccc1 [GSI IX],TRAP+ osteoclasts in JAG1 OE cocultures,[1],confirmed
TGFβ: Recombinant human TGFβ1 (R&D systems),Jagged1 expression upon TGFβ stimulation,JAGGED1,potently upregulated
rJAG1: Recombinant rat JAGGED1/Fc chimera (R&D systems),TRAP+ osteoclasts in JAG1 OE cocultures,[1],confirmed
rIL-6: Recombinant human IL-6 (R&D systems),proliferative ability of control tumor cells,[2],significantly enhanced
B1,onset of bone metastasis,[3]; SCP2 and 1833 with JAG1 shRNA,delayed
same,survival of mice,[3]; SCP2 and 1833 with JAG1 shRNA,significantly extended
same,decrease in the number of TRAP+ osteoclasts along the bone tumor interface,[3]; histological analysis,2 fold
same,ability of tumor cells to proliferate in culture or as mammary tumors in mice,[4],did not alter
